Reference: patent US20250059144A1, “Tellurium-containing compounds and the use of treating bacterial infections thereof” (Kaohsiung Medical University, priority 2021, published 2025)
Several values for one entry are separate records, joined by “and”; a condition that tells them apart may be missing. Identical values can stand only once. Like-named read-outs stand apart in the source and are kept apart here. One block for each molecule: values may come before it.

Experiments:
[1] = tested on: carbapenem-resistant Pseudomonas aeruginosa isolated from infected blood (n = 29); test: MICs in carbapenem-resistant isolate panel; format: cell-based; conditions: P. aeruginosa (n = 29)
Source text: (§1) Compound (c) was therefore used for further evaluation of anti-bacterial activities to carbapenem resistant bacteria involving Escherichia coli, Klebsiella pneumoniae, Pseudomonas aeruginosa, and Acinetobacter baumannii in the following experiments.
(§2) 34 carbapenem-resistant Klebsiella pneumoniae, 34 carbapenem-resistant Escherichia coli, 29 carbapenem-resistant Pseudomonas aeruginosa isolated from infected blood, and 28 carbapenem-resistant Acinetobacter baumannii isolated from infected blood were selected to evaluate the anti-bacterial activities of compounds (c).

[2] = tested on: carbapenem-resistant Escherichia coli (n = 34); test: MICs in carbapenem-resistant isolate panel; format: cell-based; conditions: E. coli (n = 34)
Source text: as §1, §2

[3] = tested on: carbapenem-resistant Klebsiella pneumoniae (n = 34); test: MICs in carbapenem-resistant isolate panel; format: cell-based; conditions: K. pneumoniae (n = 34)
Source text: as §1, §2

[4] = tested on: carbapenem-resistant Acinetobacter baumannii isolated from infected blood (n = 28); test: MICs in carbapenem-resistant isolate panel; format: cell-based; conditions: A. baumannii (n = 28)
Source text: as §1, §2

[5] = tested on: Klebsiella pneumoniae strain CRE-723; test: MIC in cation-adjusted Muller-Hinton broth; format: cell-based
Source text: as §1

[6] = tested on: Pseudomonas aeruginosa strain PA13; test: MIC in cation-adjusted Muller-Hinton broth; format: cell-based
Source text: as §1

[7] = tested on: Klebsiella pneumoniae ATCC BAA-1705; test: MIC in cation-adjusted Muller-Hinton broth; format: cell-based
Source text: as §1

[8] = tested on: Acinetobacter baumannii strain AB03; test: MIC in cation-adjusted Muller-Hinton broth; format: cell-based
Source text: as §1

[9] = tested on: Escherichia coli CRE-415; test: MIC in cation-adjusted Muller-Hinton broth; format: cell-based
Source text: as §1

[10] = Acute toxicity test (survival, LD50); format: in vivo; conditions: male mice; for survival rate: one week observation
Protocol: In terms of acute toxicology, the dose-response relationship is represented in S-shaped curve. It is not easy to obtain the LD50 value directly through the experiment. Therefore, the animal survival rate of 20˜80% must be used as the benchmark, and the LD50 value is obtained by calculating the dose and survival rate of the area. Six male mice of each group were injected with 15, 20, and 25 mg/kg of compound (c) by intraperitoneal injection. After a week of behavior and physiological observations, the survival rate was recorded and applied for linear regression.

[11] = Histopathological lesion evaluation and severity score of surviving mice; format: in vivo
Protocol: In the experiment, 2 mice in the 20 and 25 mg/kg groups were randomly selected for euthanasia, the tissues involving heart, liver, spleen, lung, kidney, stomach, small intestine, large intestine, pancreatic were sliced and stained and were used for histopathological lesion evaluation and severity score by a professional pathology veterinarian (Disease Animal Special Certificate No. 0040).
Extremely light to slight monocyte infiltration in the heart was a lesion that were occasionally observed by a normal mouse might be irrelevant to experimental disposal, and a small number of monocyte infiltration cells could be observed in the portal vein area of the liver of most mice. Mild to moderate hepatocyte glycogen deposition were found in all mice, and significant swollen occurred in their liver cells, this was a common background lesions in normal mice in the case of sacrifice without sufficient fasting. It was worth noting that slight necrosis of the liver was only seen in No. 25-2. Increased mitosis in liver cell is one of the common regeneration or hyperplasia reactions for liver tissue damage. Compared with normal liver tissue, damaged liver tissue may have more mitosis cells, but it is also occasionally seen in normal mice. The mice of Nos. 20-1 and 25-2 had extremely slight to mild hepatocytes increased mitosis. It might be irrelevant to experimental disposal since the degree of increased mitosis was extremely mild to mild and was not related to the dose. Extramedullary hematopoiesis (EMH) are common lesions of mice liver tissue, it can be considered as background lesion if the degree is extremely mild. […] Besides, EMH is also common lesions occurred in spleen of mice and may exist in normal mice, the mild degree of EMH may be therefore considered as background lesions. Extremely mild to mild EMH lesions were found in spleen tissues of all mice. It could be found in the number 25-2 mouse spleen that its lymphoid follicle had multiple extremely mild apoptosis lesions, but no tissue necrosis was found. […] Chronic progressive nephropathy (CPN) involving lesions of tubule basophilia, basement membrane thickening, mononuclear inflammatory cells infiltration, glomerulosclerosis, or tubule dilatation is the most common kidney lesions in the kidney tissues of mice. The cause of CPN is unknown, it can be found in normal mice, and the incidence is increased depend on ages, male mice have a higher incidence than female mice. Therefore, it is generally not recommended to score CPN lesion separately. CPN may also occur after drug administration, it should be considered as treatment-related lesions if the severities have a significant difference in group differences. In this study, there were moderate or higher CPN lesions in each mouse kidney tissue, except for mouse of No. 25-2. However, the difference was not related to the dose and might not be related to the experimental disposal.

[12] = tested on: Acinetobacter baumannii strain AB03; test: Carbapenem-resistant Acinetobacter baumannii sepsis infection model; format: in vivo; conditions: 40 mg/kg/day, 3 days treatment, A. baumannii AB03 septic mice
Protocol: For establishing the carbapenem-resistant Acinetobacter baumannii sepsis infection model, 12 mice were separated in each group and were infected with the standard Acinetobacter baumannii strain AB03 with lethal dosage by intraperitoneal injection. The compound (c) was given to test groups at the dosage of 0.33, 1.67 and 3.33 mg/kg/day for 3 days treatment, respectively. The clinical standard therapy colistin methanesulfonate (CMS) (40 mg/kg/day) was selected as compared drug. 1×PBS was given as placebo group. Mice survival rate were observed four times a day and were recorded as the curve.

[13] = CRE723, read-out: MIC K. pneumoniae strain CRE-723
[14] = PA13, read-out: MIC P. aeruginosa strain PA13
[15] = ATCCBAA1705, read-out: MIC K. pneumoniae ATCC BAA-1705
[16] = AB03, read-out: MIC A. baumannii strain AB03
[17] = CRE415, read-out: MIC E. coli CRE-415
[18] = 20 mg/kg, mice 20-1, 20-2, day 7
[19] = 25 mg/kg, mice 25-1, 25-2, day 7

- MIC50 [1]: 64 µg/mL
- MIC90 [1]: > 64 µg/mL
- MIC range [2]: 0.5~32 μg/mL
- MIC50 ([2]; Escherichia coli): 4 µg/mL
- MIC90 ([2]; Escherichia coli): 8 µg/mL
- MIC range [3]: <0.5~16 μg/mL
- MIC50 ([3]; Klebsiella pneumoniae): 2 µg/mL
- MIC90 ([3]; Klebsiella pneumoniae): 16 µg/mL
- MIC range [4]: <0.5~8 μg/mL
- MIC50 ([4]; Acinetobacter baumannii): 2 µg/mL
- MIC90 ([4]; Acinetobacter baumannii): 4 µg/mL
Molecule: Cl[TeH]1(Cl)(Cl)OCCO1 [AS101]

Molecule: Cl[Te]1(Cl)Nc2ccccc2N1 [compound (a)]
- MIC [5, 13]: 2 µg/mL
- MIC [6, 14]: 2 µg/mL
- MIC [7, 15]: 4 µg/mL
- MIC [8, 16]: 1 µg/mL
- MIC [9, 17]: 1 µg/mL

Molecule: Cl[TeH]1(Cl)(Cl)[n+]2ccccc2-c2cccc[n+]21 [compound (b)]
- MIC [5, 13]: 16 µg/mL
- MIC [6, 14]: 4 µg/mL
- MIC [7, 15]: 16 µg/mL
- MIC [8, 16]: 2 µg/mL
- MIC [9, 17]: 4 µg/mL

Molecule: CN1CCN(C)[TeH]1(Cl)(Cl)Cl [compound (c)]
- survival rate ([10]; 15 mg/kg intraperitoneal): 100%
- survival rate ([10]; 20 mg/kg intraperitoneal): 83.3%
- survival rate ([10]; 25 mg/kg intraperitoneal): 33.3%
- LD50 ([10]; intraperitoneal, linear regression of 20 and 25 mg/kg survival): 23.3 mg/kg
- Heart Mononuclear cells infiltration severity score [11, 18]: 0
- Heart Necrosis/ degeneration severity score [11, 18]: 0
- Kidney Nephropathy, chronic progressive (CPN) severity score [11, 18]: 3 and 4
- Large intestine Erosion/ ulcer severity score [11, 18]: 0
- Large intestine Mononuclear cells infiltration severity score [11, 18]: 0
- Liver Extramedullary hematopoiesis, EMH severity score [11, 18]: 1 and 2
- Liver Glycogen deposition severity score [11, 18]: 3 and 4
- Liver Increased mitosis severity score [11, 18]: 0
- Liver Necrosis/ degeneration severity score [11, 18]: 0
- Lung Mononuclear cells infiltration severity score [11, 18]: 0
- Lung Necrosis/ degeneration severity score [11, 18]: 0
- Pancreas Mononuclear cells infiltration severity score [11, 18]: 0
- Pancreas Necrosis severity score [11, 18]: 0
- Small intestine Erosion/ ulcer severity score [11, 18]: 0
- Small intestine Mononuclear cells infiltration severity score [11, 18]: 0
- Spleen Apoptosis severity score [11, 18]: 0
- Spleen Extramedullary hematopoiesis, EMH severity score [11, 18]: 2
- Spleen Necrosis severity score [11, 18]: 0
- Stomach Erosion/ ulcer severity score [11, 18]: 0
- Stomach Mononuclear cells infiltration severity score [11, 18]: 0
- Heart Necrosis/ degeneration severity score [11, 19]: 0
- Large intestine Erosion/ ulcer severity score [11, 19]: 0
- Large intestine Mononuclear cells infiltration severity score [11, 19]: 0
- Liver Increased mitosis severity score [11, 19]: 0
- Liver Mononuclear cells infiltration severity score [11, 19]: 1
- Lung Mononuclear cells infiltration severity score [11, 19]: 0
- Lung Necrosis/ degeneration severity score [11, 19]: 0
- Pancreas Mononuclear cells infiltration severity score [11, 19]: 0
- Pancreas Necrosis severity score [11, 19]: 0
- Small intestine Erosion/ ulcer severity score [11, 19]: 0
- Small intestine Mononuclear cells infiltration severity score [11, 19]: 0
- Spleen Extramedullary hematopoiesis, EMH severity score [11, 19]: 2 and 1
- Spleen Necrosis severity score [11, 19]: 0
- Stomach Erosion/ ulcer severity score [11, 19]: 0
- Stomach Mononuclear cells infiltration severity score [11, 19]: 0

- MIC ([5]; CRE723, CAMHB, read-out: MIC K. pneumoniae strain CRE-723): 8 µg/mL
- MIC ([6]; PA13, CAMHB, read-out: MIC P. aeruginosa strain PA13): 1 µg/mL
- MIC ([7]; ATCCBAA1705, CAMHB, read-out: MIC K. pneumoniae ATCC BAA-1705): 8 µg/mL
- MIC ([8]; AB03, CAMHB, read-out: MIC A. baumannii strain AB03): 1 µg/mL
- MIC ([9]; CRE415, CAMHB, read-out: MIC E. coli CRE-415): 1 µg/mL
Molecule: [2H]C1([2H])O[TeH](Cl)(Cl)(Cl)OC1([2H])[2H] [compound (d)]

Molecule: Cl[TeH]1(Cl)(Cl)[n+]2ccccc2SSc2cccc[n+]21 [compound (e)]
- MIC [5, 13]: 32 µg/mL
- MIC [6, 14]: 16 µg/mL
- MIC [7, 15]: 16 µg/mL
- MIC [8, 16]: 4 µg/mL
- MIC [9, 17]: 4 µg/mL

Molecule: Cl[TeH]1(Cl)(Cl)[n+]2cccc3ccc4ccc[n+]1c4c32 [compound (f)]
- MIC [5, 13]: 4 µg/mL
- MIC [6, 14]: 2 µg/mL
- MIC [7, 15]: 8 µg/mL
- MIC [8, 16]: 1 µg/mL
- MIC [9, 17]: 8 µg/mL

Molecule: Cc1cc[n+]2c(c1)-c1cc(C)cc[n+]1[TeH]2(Cl)(Cl)Cl [compound (g)]
- MIC [5, 13]: 16 µg/mL
- MIC [6, 14]: 4 µg/mL
- MIC [7, 15]: 16 µg/mL
- MIC [8, 16]: 4 µg/mL
- MIC [9, 17]: 16 µg/mL

Molecule: Cc1ccc2[n+](c1)[TeH](Cl)(Cl)(Cl)[n+]1cc(C)ccc1-2 [compound (h)]
- MIC [5, 13]: 16 µg/mL
- MIC [6, 14]: 8 µg/mL
- MIC [7, 15]: 8 µg/mL
- MIC [8, 16]: 4 µg/mL
- MIC [9, 17]: 4 µg/mL

Molecule: colistin methanesulfonate [CMS]
- survival rate [12]: 16.7%
